According to ChEMBL document CHEMBL5370691, “Novel Pyrido[3,2-d]pyrimidines as HPK1 Inhibitors for Treating Cancer and Inflammatory and Autoimmune Diseases” (ACS Med Chem Lett, 2023):

biological target: Mitogen-activated protein kinase kinase kinase kinase 1 (Homo sapiens, UniProt Q92918); assay: Inhibition of N-terminal GST-tagged full-length human HPK1 expressed in baculovirus infected Sf21 cells using MBP as substrate preincubated for 15 mins followed by substrate addition and measured after 120 mins in presence of ATP by ADP-glo assay
Sequence (Q92918 whole entry): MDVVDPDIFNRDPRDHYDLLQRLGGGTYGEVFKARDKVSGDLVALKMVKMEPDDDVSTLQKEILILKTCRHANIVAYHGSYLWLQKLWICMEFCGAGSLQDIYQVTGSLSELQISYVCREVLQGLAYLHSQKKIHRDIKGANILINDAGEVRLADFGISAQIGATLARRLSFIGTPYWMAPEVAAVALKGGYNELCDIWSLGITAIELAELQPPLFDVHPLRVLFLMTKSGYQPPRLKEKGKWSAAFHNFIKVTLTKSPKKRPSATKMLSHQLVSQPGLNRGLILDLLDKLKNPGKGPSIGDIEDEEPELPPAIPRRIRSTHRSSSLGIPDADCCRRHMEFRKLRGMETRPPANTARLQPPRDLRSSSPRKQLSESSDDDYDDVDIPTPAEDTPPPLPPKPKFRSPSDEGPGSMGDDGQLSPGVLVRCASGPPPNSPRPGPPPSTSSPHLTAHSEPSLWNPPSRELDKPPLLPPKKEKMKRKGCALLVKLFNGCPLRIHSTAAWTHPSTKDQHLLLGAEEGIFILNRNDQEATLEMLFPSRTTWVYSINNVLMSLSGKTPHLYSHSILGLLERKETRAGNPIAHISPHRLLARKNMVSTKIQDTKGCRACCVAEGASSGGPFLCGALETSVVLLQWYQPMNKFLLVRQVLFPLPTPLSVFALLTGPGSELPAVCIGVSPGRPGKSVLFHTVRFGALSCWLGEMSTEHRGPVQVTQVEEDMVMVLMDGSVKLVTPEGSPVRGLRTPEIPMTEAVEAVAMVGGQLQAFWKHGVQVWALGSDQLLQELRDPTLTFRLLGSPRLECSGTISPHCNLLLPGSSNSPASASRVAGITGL

Row | IC50 | Structure (SMILES)
1 | < 100 nM | CN1CCN(c2ccc(-c3cc(C(N)=O)c4ncnc(N[C@H]5CCCNC5)c4n3)cn2)CC1
2 | < 100 nM | COCCOc1ccc(-c2cc(C(N)=O)c3ncnc(N[C@H]4CCCNC4)c3n2)c(C#N)c1
3 | < 100 nM | NC(=O)c1cc(-c2ccc(F)cc2)nc2c(N[C@H]3CCCNC3)ncnc12
4 | < 100 nM | NC(=O)c1cc(-c2ccc(C3(O)CC3)cc2)nc2c(N[C@H]3CCCNC3)ncnc12
5 | < 100 nM | COc1ccccc1-c1cc(C(N)=O)c2ncnc(N[C@H]3CCCNC3)c2n1
6 | < 100 nM | CS(=O)(=O)Cc1ccc(-c2cc(C(N)=O)c3ncnc(N[C@H]4CCCNC4)c3n2)cc1
